Reference: paper PMC4356640 (Pharmacogenetics and genomics, 2015)

Key:
[1] = Tamoxifen and metabolite steady state plasma concentrations; details: for pharmacokinetics differ by CYP2D6 genotype: 3 and 6 month visits; for 3m or 6m steady state concentrations correlated with age: p-values > 0.11
CYP2D6 enzyme activity = experiment: 13C-dextromethorphan breath test; format: in vivo, human

CC/C(=C(\c1ccc(O)cc1)c1ccc(OCCN(C)C)cc1)c1ccccc1 [4HT, 4-hydroxytamoxifen]
pharmacokinetics differ by CYP2D6 genotype [1]: Neither tamoxifen, NDMT, or 4HT pharmacokinetics were found to differ by CYP2D6 genotype
3m or 6m steady state concentrations correlated with age [1]: no evidence

COc1ccc2c(c1)[C@]13CCCC[C@@H]1[C@H](C2)N(C)CC3 [DM, Dextromethorphan]
correlation (r) of baseline DM-BT values with CYP2D6 genotype (CYP2D6 enzyme activity; Spearman, p < 0.0001, n=77): 0.55
correlation (r) of 6m DM-BT values with CYP2D6 genotype (CYP2D6 enzyme activity; Spearman, p < 0.001, n=55): 0.55
correlation (r) of 3m DM-BT values with CYP2D6 genotype (CYP2D6 enzyme activity; Spearman, p< 0.0001, n=60): 0.58

CC/C(=C(\c1ccc(O)cc1)c1ccc(OCCNC)cc1)c1ccccc1 [Endx, endoxifen]
correlation (r) of CYP2D6 genotype with 3m Endx Css ([1]; Spearman, p < 0.0001, n=57): 0.47
correlation (r) of CYP2D6 genotype with 3m Endx/NDMT ratio ([1]; Spearman, p < 0.0001, n=57): 0.60
correlation (r) of CYP2D6 genotype with 6m Endx/NDMT ratio ([1]; Spearman, p<0.0001, n=54): 0.61
correlation (r) of CYP2D6 genotype with 6 month Endx Css ([1]; Spearman, p<0.0001, n=54): 0.56
concentrations of endoxifen, fold lower than that of Lien et al ([1]; comparison with ref 14): ~8 fold
concentration at 3 months ([1]; human, plasma, oral, 20 mg daily, Median Endx concentration (range), Endx Css, 3 months, CYP2D6 PM/PM, activity score 0, n=2): 5.5 nM
concentration at 6 months ([1]; human, plasma, oral, 20 mg daily, Median Endx concentration (range), Endx Css, 6 months, CYP2D6 PM/PM, activity score 0, n=2): 6.7 nM
3m or 6m steady state concentrations correlated with age [1]: no evidence

CC/C(=C(\c1ccccc1)c1ccc(OCCNC)cc1)c1ccccc1 [NDMT, N-desmethyltamoxifen]
pharmacokinetics differ by CYP2D6 genotype [1]: Neither tamoxifen, NDMT, or 4HT pharmacokinetics were found to differ by CYP2D6 genotype
3m or 6m steady state concentrations correlated with age [1]: no evidence

Fc1ccc([C@@H]2CCNC[C@H]2COc2ccc3c(c2)OCO3)cc1 [paroxetine]
baseline DOB30 values lower than at 3 and 6 month visits after paroxetine was discontinued (CYP2D6 enzyme activity; one patient who took paroxetine prior to the baseline visit): > 50%

CC/C(=C(\c1ccccc1)c1ccc(OCCN(C)C)cc1)c1ccccc1 [tamoxifen, Tamoxifen, reference compound]
3m or 6m steady state concentrations correlated with age [1]: no evidence
